In the supplement of paper PMC10307832:

Assays:
Experiment in all cases: relative viability (nuclei count vs DMSO), 5 days (fraction); higher = more cells survive
[1] = compound: CC1=CN=C(N=C1C2=CNC(=C2)C(=O)N[C@H](CO)C3=CC(=CC=C3)Cl)NC4=C(C=C(C=C4)F)Cl [VX-11e] + CC(=O)Nc1cccc(-n2c(=O)n(C3CC3)c(=O)c3c(Nc4ccc(I)cc4F)n(C)c(=O)c(C)c32)c1 [Trametinib] (partner 0.02 µM)
How it was run: (§1)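 Lung cancer cell lines in 1536-well plates got either a single drug or a fixed anchor-drug dose together with five library-drug doses (not always all listed) in √10 steps, by pin tool, on the day after seeding. Nuclei were counted after 5 days, and relative viability is the treated-to-vehicle ratio of nuclei counts. Values are medians of duplicate plates.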

[2] = compound: CC1=CN=C(N=C1C2=CNC(=C2)C(=O)N[C@H](CO)C3=CC(=CC=C3)Cl)NC4=C(C=C(C=C4)F)Cl [VX-11e] + COc1cccc2cc(-c3nc([C@H]4CC[C@H](C(=O)O)CC4)n4ncnc(N)c34)[nH]c12 [OSI-027] (partner 0.5 µM)
How it was run: as §1

[3] = compound: CC1=CN=C(N=C1C2=CNC(=C2)C(=O)N[C@H](CO)C3=CC(=CC=C3)Cl)NC4=C(C=C(C=C4)F)Cl [VX-11e] + C[C@@H](Oc1cc(-c2cnn(C3CCNCC3)c2)cnc1N)c1c(Cl)ccc(F)c1Cl [Crizotinib] (partner 1 µM)
How it was run: as §1

[4] = compound: CC1=CN=C(N=C1C2=CNC(=C2)C(=O)N[C@H](CO)C3=CC(=CC=C3)Cl)NC4=C(C=C(C=C4)F)Cl [VX-11e] + N=C(N)NC(=N)NCCc1ccccc1 [Phenformin] (partner 250 µM)
How it was run: as §1

Row | Cell Line | relative viability ([1]; first compound 0.04 µM) | relative viability ([1]; first compound 0.1265 µM) | relative viability ([1]; first compound 0.4 µM) | relative viability ([1]; first compound 1.265 µM) | relative viability ([1]; first compound 4 µM) | relative viability ([2]; first compound 0.04 µM) | relative viability ([2]; first compound 0.1265 µM) | relative viability ([2]; first compound 0.4 µM) | relative viability ([2]; first compound 1.265 µM) | relative viability ([2]; first compound 4 µM) | relative viability ([3]; first compound 0.04 µM) | relative viability ([3]; first compound 0.1265 µM) | relative viability ([3]; first compound 0.4 µM) | relative viability ([3]; first compound 1.265 µM) | relative viability ([3]; first compound 4 µM) | relative viability ([4]; first compound 0.04 µM) | relative viability ([4]; first compound 0.1265 µM) | relative viability ([4]; first compound 0.4 µM) | relative viability ([4]; first compound 1.265 µM) | relative viability ([4]; first compound 4 µM)
1 | 201T | 0.737 | 0.72 | 0.705 | 0.706 | 0.689 | 0.728 | 0.678 | 0.823 | 0.603 | 0.645 | 1.02 | 0.961 | 1.02 | 0.97 | 0.948 | 0.445 | 0.476 | 0.38 | 0.453 | 0.418
2 | A-427 | 0.73 | 0.657 | 0.708 | 0.694 | 0.379 | 0.334 | 0.19 | 0.309 | 0.215 | 0.183 | 0.92 | 0.721 | 0.55 | 0.688 | 0.311 | 0.343 | 0.213 | 0.263 | 0.264 | 0.158
3 | ABC-1 | – | – | – | – | – | 0.309 | 0.426 | 0.374 | 0.339 | 0.278 | 1.24 | 1.07 | 1.06 | 0.892 | 1.09 | 0.205 | 0.277 | 0.224 | 0.243 | 0.281
4 | BEN | 1.08 | 0.845 | 1.06 | 0.798 | 1.1 | – | 0.274 | 0.302 | 0.285 | 0.242 | 0.953 | 0.723 | 0.941 | 0.575 | 0.828 | – | 0.267 | 0.256 | 0.299 | 0.253
5 | CAL-12T | 0.235 | 0.243 | 0.285 | 0.229 | 0.228 | 0.402 | 0.523 | 0.424 | 0.312 | 0.199 | 0.697 | 0.632 | 0.633 | 0.543 | 0.394 | 0.677 | 0.507 | 0.504 | 0.41 | 0.194
6 | COR-L23 | 0.481 | 0.441 | 0.323 | 0.328 | 0.188 | 0.733 | 0.591 | 0.579 | 0.347 | 0.185 | 0.708 | 0.627 | 0.646 | 0.497 | 0.211 | 0.52 | 0.409 | 0.471 | 0.428 | 0.276
7 | COR-L 105 | 0.425 | 0.459 | 0.369 | 0.423 | 0.403 | 0.541 | 0.802 | 0.552 | 0.326 | 0.254 | 0.779 | 0.705 | 0.547 | 0.369 | 0.292 | 0.489 | 0.487 | 0.391 | 0.366 | 0.227
8 | Calu-6 | – | – | – | – | – | – | – | – | – | – | 0.829 | 0.839 | 0.861 | 0.396 | 0.145 | – | – | – | – | –
9 | ChaGo-K-1 | 0.928 | 0.909 | 0.842 | 0.881 | 0.869 | 0.546 | 0.533 | 0.395 | 0.527 | 0.439 | 1.19 | – | 1.23 | 1.01 | 1.12 | 0.435 | 0.478 | 0.382 | 0.472 | 0.407
10 | EBC-1 | – | – | – | – | – | – | – | – | – | – | 0.204 | 0.182 | 0.163 | 0.198 | 0.18 | – | – | – | – | –
11 | EKVX | 0.385 | 0.353 | 0.293 | 0.395 | 0.207 | 0.692 | 0.661 | 0.703 | 0.667 | 0.223 | 1.07 | 0.944 | 0.879 | 0.764 | 0.617 | 0.211 | 0.237 | 0.13 | 0.216 | 0.197
12 | EMC-BAC-2 | 0.937 | 0.791 | 0.518 | 0.538 | 0.402 | 0.312 | 0.387 | 0.458 | 0.421 | 0.357 | 0.808 | 0.708 | 0.739 | 0.618 | 0.671 | 0.518 | 0.481 | 0.633 | 0.545 | 0.51
13 | EPLC-272H | 0.268 | 0.299 | – | 0.225 | 0.173 | 0.257 | 0.219 | – | 0.199 | 0.165 | 0.711 | 0.877 | 0.85 | 0.676 | 0.627 | 0.322 | 0.22 | – | 0.32 | 0.225
14 | H3255 | 0.678 | 0.635 | 0.425 | 0.443 | 0.33 | 0.52 | 0.601 | 0.559 | 0.637 | 0.407 | 0.898 | 0.716 | 0.608 | 0.877 | 0.887 | 0.359 | 0.411 | 0.378 | 0.362 | 0.319
15 | HARA | 0.589 | 0.636 | 0.64 | 0.209 | 0.244 | 0.269 | 0.372 | 0.279 | 0.186 | 0.0641 | 1.05 | 0.792 | 1.04 | 0.833 | 0.813 | 0.453 | 0.431 | 0.414 | 0.399 | 0.314
16 | HCC-15 | 0.354 | 0.345 | – | 0.297 | 0.246 | 0.616 | 0.624 | – | 0.227 | 0.153 | 0.904 | 0.747 | 0.64 | 0.449 | 0.264 | 0.57 | 0.464 | – | 0.211 | 0.162
17 | HCC-44 | 1.05 | 1.07 | 0.92 | 0.888 | 0.607 | 0.485 | 0.453 | 0.144 | 0.247 | 0.284 | 0.879 | 0.809 | 0.833 | 0.753 | 0.453 | 0.211 | 0.172 | 0.115 | 0.119 | 0.139
18 | HCC-78 | 0.827 | 0.651 | 0.632 | 0.559 | 0.387 | – | 0.364 | 0.395 | 0.376 | 0.393 | 0.351 | 0.307 | 0.353 | 0.285 | 0.285 | – | 0.75 | 0.857 | 0.672 | 0.738
